The record followed here is ChEMBL document CHEMBL1142388, “Carbonic anhydrase activators: activation of the human tumor-associated isozymes IX and XII with amino acids and amines” (Bioorg Med Chem, 2008).

Assay [1] has as its target Carbonic anhydrase 9 (Homo sapiens) (UniProt Q16790). The assay is described as follows: Activation of human recombinant CA9 catalytic domain by stopped-flow CO2 hydration method.
Assay [2] addresses Carbonic anhydrase 12 (Homo sapiens) (UniProt O43570). The assay is described as follows: Activation of human recombinant CA12 catalytic domain by stopped-flow CO2 hydration method.

Chain of Carbonic anhydrase 12 (Homo sapiens) (O43570 whole entry, the tested form may be a part): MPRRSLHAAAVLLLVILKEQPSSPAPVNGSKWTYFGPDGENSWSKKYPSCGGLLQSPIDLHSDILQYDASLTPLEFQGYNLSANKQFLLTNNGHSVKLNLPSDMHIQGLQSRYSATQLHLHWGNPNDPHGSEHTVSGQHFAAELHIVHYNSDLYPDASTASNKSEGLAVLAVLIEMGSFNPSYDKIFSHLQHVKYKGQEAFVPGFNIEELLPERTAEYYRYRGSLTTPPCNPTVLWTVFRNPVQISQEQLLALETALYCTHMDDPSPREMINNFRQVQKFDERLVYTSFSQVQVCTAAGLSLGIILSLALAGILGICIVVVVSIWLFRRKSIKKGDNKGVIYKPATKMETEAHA

Turning to `NCCc1c[nH]cn1`, the results for the KA in assay [1] and in assay [2] were 35.1 µM and 27.9 µM, respectively.
For the compound `N[C@@H](Cc1c[nH]c2ccccc12)C(=O)O`, the KA in assay [1] worked out at 37.5 µM; in assay [2] it was 26 µM.
For `N[C@@H](Cc1ccc(O)cc1)C(=O)O`, in that order: 25.3 µM and 25.8 µM.
For `NCCc1ccc(O)c(O)c1`, in that order: 0.92 µM and 0.67 µM.
Taken in the same sequence, the figures for `CNCC(O)c1ccc(O)c(O)c1` (single isomer, unassigned) were 0.87 µM and 0.41 µM.
Turning to `NCc1ccccn1`, the KA in assay [1] was determined as 1.07 µM; in assay [2], 41.5 µM.
Taken in the same sequence, the figures for `NCCc1ccccn1` were 0.013 µM and 0.69 µM.
`N[C@H](Cc1ccc(O)c(O)c1)C(=O)O`: the figures for the KA in assay [1] and in assay [2] were 54.7 µM and 0.89 µM, respectively.
For `NCCc1c[nH]c2ccc(O)cc12`, in that order: 33.1 µM and 0.3 µM.
For `N[C@@H](Cc1c[nH]cn1)C(=O)O`, the KA in assay [1] stood at 9.71 µM; in assay [2], 37.5 µM.
For `N[C@H](Cc1c[nH]c2ccccc12)C(=O)O`, in that order: 43.6 µM and 28.1 µM.
`N[C@@H](Cc1ccc(O)c(O)c1)C(=O)O`: the KA in assay [1] turned out to be 51.3 µM; in assay [2], 1.67 µM.
Regarding `N[C@H](Cc1c[nH]cn1)C(=O)O`, the KA is 12.5 µM in assay [1] and 24.7 µM in assay [2].
As to `NCCN1CCNCC1`, the KA in assay [1] worked out at 0.009 µM; in assay [2] it was 48.3 µM.
Taken in the same sequence, the figures for `NCCN1CCOCC1` were 0.43 µM and 0.24 µM.
Taken in the same sequence, the figures for `Nc1ccc(C[C@H](N)C(=O)O)cc1` were 48.7 µM and 1.09 µM.
